Experimental data taken from US9834514B2, “Antibiotic sensitivity-restoring and photosensitive agents” (New Mexico Tech Research Foundation, priority 2015, dated 2017).

Legend:
P. aeruginosa = assay: Cell killing with compounds and PME at fixed concentrations, with and without white light; type: cell-based; conditions: 20 μM compound and 0.1 μg/mL PME
Experimental: FIG. 26 is an example of the treatment of P. aeruginosa with compound 1 and PME at fixed concentrations.
P. aeruginosa cells were also treated with white light upon being incubated with compound 1 for different durations of time. In a 12×75 mm borosilicate glass culture tube, 1 mL of cell suspension was added. PME was added to the cells, and the samples were mixed using a vortex mixer. The resulting samples were incubated for 1.5 hours at 37° C. on a rotary shaking incubator at 100 rpm. Compound 1 was then added, and the samples were incubated for 30 minutes at 37° C. on a rotary shaking incubator at 100 rpm. The samples were then irradiated with white light using a Lumacare™ LC-122 for 2 minutes (irradiation λ1) and incubated overnight at 37° C. The samples were irradiated again with white light using a Lumacare™ LC-122 for 2 minutes (irradiation λ2). Ten-fold dilutions were made of each sample, and 10 μL of each dilution was drip-streaked onto an agar plate. The samples were incubated overnight at 37° C., and colony counts were performed to calculate CFU/mL.
FIG. 55 is an illustrative example of the treatment of P. aeruginosa with compound 1, PME, co-treatment with compound 1 and PME, and co-treatment with compound 1, PME, and light (λ1 and λ2) at fixed concentrations.

[1] = system: Klebsiella pneumoniae (CRE, ATCC BAA-1705); assay: Time-dependent colony counts of CRE with compounds and PME; type: cell-based; conditions: PME 0.2 μg/mL, compound 20 μM; FIGS. 48, 49
Experimental: The MICs of PME and compounds 8-11 were determined against Klebsiella pneumoniae (CRE, ATCC BAA-1705). […] […] At specific time points, the samples were taken and diluted ten-fold in media. Ten microliters of each dilution was then drip-streaked onto an agar plate and incubated overnight at 37° C. Colony counts were then performed and the CFU/mL were calculated.

[2] = system: A. baumannii (ATCC 15151); assay: MIC against A. baumannii; type: cell-based; conditions: Acinetobacter baumannii, ATCC15151
Experimental: TABLE 28 details the individual MIC values of compounds 1, 7, 8, 9, 10, 11, PMB, PME, and light against A. baumannii.
(§1) The MICs of PME and compounds 8-11 were determined against A. baumannii (ATCC 15151). […] After incubating the cells with PME, a compound (5 μM) was added, and the samples were further incubated at 37° C. At specific time points, samples were taken and diluted ten-fold in media. Ten microliters of each dilution was then drip-streaked onto an agar plate and incubated overnight at 37° C. Colony counts were then performed, and the CFU/mL were calculated.

[3] = system: A. baumannii (ATCC 15151); assay: Time course of colony counts with compounds and PME or PMB; type: cell-based; conditions: 0.2 μg/mL of PME, compound 5 μM; FIGS. 50, 52
Experimental: as §1

VRE = assay: Resensitization to antibiotics (log reduction, TABLE 29); type: cell-based, Enterococcus faecalis; conditions: compound 75 μM
Experimental: (§2) In a 96-well microtiter plate, two-fold dilutions were made of each drug (starting with 100 μM) in 100 μL of a cell suspension in TSB. The resulting samples were incubated overnight at 37° C. on a rotary shaking incubator at 100 rpm. The samples were then visually inspected for turbidity. A 20% well volume of MTT reagent (5 mg/mL) was subsequently added, and the samples were incubated for about 20 minutes.

A. baumannii = assay: as above; type: cell-based; conditions: compound 5 μM; PME (0.2 μg/mL)
CRE = assay: as above; type: cell-based; conditions: compound 20 μM
Experimental: as §2

[4] = system: MRSA isolates (S. aureus ATCC 33591, BAA-44, BAA-1707, BAA-1717, BAA-1720, BAA-1747, BAA-1754, BAA-1761, BAA-1763, BAA-1764, BAA-1766); assay: Combination effects of compounds 7-11 and antibiotics on MRSA isolates (turbidity); type: cell-based
Source text: Inhibition resulting from co-treatment of a broth suspension with a compound of the invention and an antibiotic was compared to broth suspensions subjected to each individual treatment. A visual observation of inhibition with the unaided eye upon co-treatment of the broth suspensions, based on turbidity, was considered synergistic.
Exceptions to reading complete inhibition of growth included Gram-positive cocci. For Gram-positive cocci, trailing growth was observed. For these species, the MICs were read at the first spot where trailing was observed, and tiny buttons of growth were ignored. […]
Two-fold dilutions of the antibiotics were prepared in a liquid growth medium dispensed in test tubes. […] The antibiotic-containing tubes were inoculated with a standard bacterial suspension of 5×10^5 CFU/mL. Following an overnight incubation (16-20 hrs) at 35±2° C. under ambient air, the tubes were examined for visible bacterial growth based on turbidity. The lowest concentration of antibiotic that prevented growth was determined to be the MIC. An incubation time of 24 hrs was used to determine the MICs of oxacillin and vancomycin.

Clc1ccc(/N=N/c2c[nH]c3ccccc23)cc1 [Compound 9]
Co-treatment with PME: log reduction in the CFU/mL compared to PME alone (P. aeruginosa): 2-log reduction
Co-treatment with PME: log reduction in the CFU/mL compared to PME alone (P. aeruginosa; listed as compound 9): ~2 log reduction
CRE colony populations on simultaneous treatment with PME [1]: reduced the CRE colony populations to sterility
MIC [2]: > 100 µM
A. baumannii colony populations on treatment with compound and PME [3]: reduced to sterility
Log Reduction (VRE; Norfloxacin ([…])): 4
Log Reduction (VRE; Tetracycline (1.5 μg/mL)): 3-4
Log Reduction (A. baumannii): 8
Log Reduction (CRE; PMB (0.2 μg/mL)): 6
Log Reduction (CRE; PME (0.2 μg/mL)): 6
combination effect with Gentamycin ([4]; MRSA ATCC 33591): No Synergy
combination effect with Norfloxacin ([4]; MRSA ATCC 33591): No Synergy
combination effect with Oxacillin ([4]; MRSA ATCC 33591): No Synergy
combination effect with Tetracycline ([4]; MRSA ATCC 33591): No Synergy
combination effect with Vancomycin ([4]; MRSA ATCC 33591): Susceptible
combination effect with Norfloxacin ([4]; MRSA ATCC BAA-44): No Synergy
combination effect with Oxacillin ([4]; MRSA ATCC BAA-44): No Synergy
combination effect with Tetracycline ([4]; MRSA ATCC BAA-44): Susceptible
combination effect with Vancomycin ([4]; MRSA ATCC BAA-44): Susceptible
combination effect with Gentamycin ([4]; MRSA ATCC BAA-1707): Susceptible
combination effect with Norfloxacin ([4]; MRSA ATCC BAA-1707): Susceptible
combination effect with Oxacillin ([4]; MRSA ATCC BAA-1707): Susceptible
combination effect with Tetracycline ([4]; MRSA ATCC BAA-1707): No Synergy
combination effect with Vancomycin ([4]; MRSA ATCC BAA-1707): Susceptible
combination effect with Gentamycin ([4]; MRSA ATCC BAA-1717): Susceptible
combination effect with Norfloxacin ([4]; MRSA ATCC BAA-1717): Susceptible
combination effect with Oxacillin ([4]; MRSA ATCC BAA-1717): Synergy
combination effect with Tetracycline ([4]; MRSA ATCC BAA-1717): Susceptible
combination effect with Vancomycin ([4]; MRSA ATCC BAA-1717): Susceptible
combination effect with Gentamycin ([4]; MRSA ATCC BAA-1720): Susceptible
combination effect with Norfloxacin ([4]; MRSA ATCC BAA-1720): No Synergy
combination effect with Oxacillin ([4]; MRSA ATCC BAA-1720): Synergy
combination effect with Tetracycline ([4]; MRSA ATCC BAA-1720): Susceptible
combination effect with Vancomycin ([4]; MRSA ATCC BAA-1720): Susceptible
combination effect with Gentamycin ([4]; MRSA ATCC BAA-1747): Susceptible
combination effect with Norfloxacin ([4]; MRSA ATCC BAA-1747): Susceptible
combination effect with Oxacillin ([4]; MRSA ATCC BAA-1747): Susceptible
combination effect with Tetracycline ([4]; MRSA ATCC BAA-1747): Susceptible
combination effect with Vancomycin ([4]; MRSA ATCC BAA-1747): Susceptible
combination effect with Gentamycin ([4]; MRSA ATCC BAA-1754): Susceptible
combination effect with Norfloxacin ([4]; MRSA ATCC BAA-1754): Susceptible
combination effect with Oxacillin ([4]; MRSA ATCC BAA-1754): No Synergy
combination effect with Tetracycline ([4]; MRSA ATCC BAA-1754): Susceptible
combination effect with Vancomycin ([4]; MRSA ATCC BAA-1754): Susceptible
combination effect with Gentamycin ([4]; MRSA ATCC BAA-1761): Susceptible
combination effect with Norfloxacin ([4]; MRSA ATCC BAA-1761): No Synergy
combination effect with Oxacillin ([4]; MRSA ATCC BAA-1761): Susceptible
combination effect with Tetracycline ([4]; MRSA ATCC BAA-1761): Susceptible
combination effect with Vancomycin ([4]; MRSA ATCC BAA-1761): Susceptible
combination effect with Gentamycin ([4]; MRSA ATCC BAA-1763): Susceptible
combination effect with Norfloxacin ([4]; MRSA ATCC BAA-1763): No Synergy
combination effect with Oxacillin ([4]; MRSA ATCC BAA-1763): Synergy
combination effect with Tetracycline ([4]; MRSA ATCC BAA-1763): Susceptible
combination effect with Vancomycin ([4]; MRSA ATCC BAA-1763): Susceptible
combination effect with Gentamycin ([4]; MRSA ATCC BAA-1764): Susceptible
combination effect with Norfloxacin ([4]; MRSA ATCC BAA-1764): Susceptible
combination effect with Oxacillin ([4]; MRSA ATCC BAA-1764): Synergy
combination effect with Tetracycline ([4]; MRSA ATCC BAA-1764): Susceptible
combination effect with Vancomycin ([4]; MRSA ATCC BAA-1764): Susceptible
combination effect with Gentamycin ([4]; MRSA ATCC BAA-1766): Susceptible
combination effect with Norfloxacin ([4]; MRSA ATCC BAA-1766): Susceptible
combination effect with Oxacillin ([4]; MRSA ATCC BAA-1766): Synergy
combination effect with Tetracycline ([4]; MRSA ATCC BAA-1766): Susceptible
combination effect with Vancomycin ([4]; MRSA ATCC BAA-1766): Susceptible
